Test results: patent US9855265B2, “Methods for treating cancer with TrkA receptor tyrosine kinase antagonists” (VM Oncology LLC, priority 2014, dated 2018)

Assays:
[1] = test system: Panc-1 human pancreatic cancer cells; assay: Cell Viability and Proliferation Assay, Panc-1; assay type: cell-based; settings: after 24 incubation
Procedure: (§1) Cell Viability and Proliferation Assays. To assess the chemosensitivity of tumor cells, cell viability is measured by CellTiter-Glo® Luminescent Cell Viability Assay (Promega; Wis., USA) per the manufacturer's instruction. Briefly, 5×10^3 to 7×10^5 cells/ml are cultured in sterile 96-well plates in the presence of increasing concentrations of the drugs (test article, 0 to 100 μM), or vehicle in RPMI medium. The plates are then incubated for 24 to 96 h, and then 100 μl of CellTiter-Glo reagent is added to lyse the cells. After a 10-min incubation at room temperature, the luminescence is recorded in a luminometer with an integration time of 1 s per well. The luminescence signals for the drug-treated cells are normalized by the luminescence signal obtained from vehicle-treated cells. As an alternative method to quantitate cell viability, the trypan blue exclusion dye method was used. Vehicle- or drug-treated cells were assayed by adding trypan blue solution (0.4% in phosphate-buffered saline [PBS]) to the culture medium. After 3 min, the number of dead cells that retained the dye is compared to the total number of cells to calculate cell viability. GraphPad Prism 5 software is used to calculate IC50 and plot effect-dose curve of drugs. Multiplate reader: EnVision 2104 (PerkinElmer). % of control variability=100*[(X(drug_treated)−L(baseline))/(H(vehicle_control)−L(baseline))]. […]

[2] = biological target: PKG1b (Homo sapiens, UniProt Q13976); assay: radiometric kinase assay, other kinases: PKG1b; assay type: biochemical; settings: duplicate
Chain of PKG1b (Q13976 1-686 isoform Q13976-2): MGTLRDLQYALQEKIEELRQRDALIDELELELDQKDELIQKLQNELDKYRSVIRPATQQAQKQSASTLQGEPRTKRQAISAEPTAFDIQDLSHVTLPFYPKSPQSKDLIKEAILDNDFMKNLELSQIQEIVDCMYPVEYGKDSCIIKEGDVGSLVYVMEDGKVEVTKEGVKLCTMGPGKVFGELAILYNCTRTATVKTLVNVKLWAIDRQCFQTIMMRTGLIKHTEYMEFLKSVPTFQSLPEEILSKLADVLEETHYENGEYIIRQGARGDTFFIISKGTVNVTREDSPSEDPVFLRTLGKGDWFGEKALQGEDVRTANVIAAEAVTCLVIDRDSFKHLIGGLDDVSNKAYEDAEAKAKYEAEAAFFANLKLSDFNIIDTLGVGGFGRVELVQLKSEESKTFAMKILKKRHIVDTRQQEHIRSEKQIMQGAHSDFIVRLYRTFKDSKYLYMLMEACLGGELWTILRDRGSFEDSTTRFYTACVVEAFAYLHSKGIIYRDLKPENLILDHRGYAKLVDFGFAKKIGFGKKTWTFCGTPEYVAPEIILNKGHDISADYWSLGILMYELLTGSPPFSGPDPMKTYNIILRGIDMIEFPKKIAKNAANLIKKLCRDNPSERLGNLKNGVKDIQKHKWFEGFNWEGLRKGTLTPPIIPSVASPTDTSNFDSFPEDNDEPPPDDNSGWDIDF
Procedure: (§2) Compound inhibition in a radiometric based mixed micelle assay: In a final reaction volume of 25 μL, TrkA (h) ([…]) is incubated with the kinase reaction buffer (20 mM HEPES (pH 7.5), 10 mM MgCl2, 1 mM EGTA, 0.02% Brij 35, 0.02 mg/ml BSA, 0.1 mM Na3VO4, 2 mM DTT, 1% DMSO), 0.2 mg/ml substrate PolyEY(4:1) and […], and [^33P-ATP](specific activity approx. 500 cpm/pmol, concentration as required). The reaction is initiated by the addition of the MgATP mix. After incubation for at least 40 minutes at room temperature, the reaction is stopped by the addition of 5 μL of a 3% phosphoric acid solution. 10 μL of the reaction is then spotted onto a P30 filtermat and washed three times for 5 minutes in 75 mM phosphoric acid and once in methanol prior to drying and scintillation counting. TrkA: Recombinant Human Cytoplasmic Domain (amino acids 441-796), Histidine-tagged, expressed in insect cells. Activated in vitro via auto-phosphorylation. Mw=42.8 kDa. Substrates for kinases: poly(EY) for TRKA; poly(EY)(4:1) with 2 mM MnCl2, average Mw=16 kDa Standard conditions (unless otherwise specified): 30 nM TRKA, 0.2 mg/ml poly(EY)+2 mM MnCl2, and 10 μM ([γ-^33P]) ATP. Using the similar assay condition with other kinases of recombinant human cytoplasmic domain, the activities of other kinases could be also measured.

[3] = biological target: T1, FMS (Homo sapiens, UniProt P07333); assay: radiometric kinase assay, other kinases: FMS; assay type: biochemical; settings: duplicate
T1 construct: other kinases of recombinant human cytoplasmic domain
Procedure: as §2

[4] = biological target: T2, VEGFR2/KDR (Homo sapiens, UniProt P35968); assay: radiometric kinase assay, other kinases: VEGFR2/KDR; assay type: biochemical; settings: duplicate
T2 construct: other kinases of recombinant human cytoplasmic domain
T2 sequence (P35968 786-1356 limits assumed): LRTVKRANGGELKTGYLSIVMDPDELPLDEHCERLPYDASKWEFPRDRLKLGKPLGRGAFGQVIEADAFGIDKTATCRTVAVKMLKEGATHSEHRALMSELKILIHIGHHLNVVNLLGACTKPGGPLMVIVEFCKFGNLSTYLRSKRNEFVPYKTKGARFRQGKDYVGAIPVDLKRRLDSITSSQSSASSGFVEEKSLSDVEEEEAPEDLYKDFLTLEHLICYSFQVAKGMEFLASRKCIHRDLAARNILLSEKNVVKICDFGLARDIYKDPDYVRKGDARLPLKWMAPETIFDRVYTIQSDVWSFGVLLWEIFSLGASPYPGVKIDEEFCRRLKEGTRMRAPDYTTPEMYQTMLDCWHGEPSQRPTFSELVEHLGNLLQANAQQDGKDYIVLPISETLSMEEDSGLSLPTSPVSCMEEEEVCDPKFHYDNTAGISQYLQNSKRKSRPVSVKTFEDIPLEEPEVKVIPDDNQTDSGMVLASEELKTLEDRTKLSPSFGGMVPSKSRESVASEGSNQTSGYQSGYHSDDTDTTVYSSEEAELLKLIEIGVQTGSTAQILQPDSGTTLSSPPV
Procedure: as §2

[5] = biological target: T3, TGFbR2 (Homo sapiens, UniProt P37173); assay: radiometric kinase assay, other kinases: TGFbR2; assay type: biochemical; settings: duplicate
T3 construct: other kinases of recombinant human cytoplasmic domain
Procedure: as §2

[6] = biological target: RAF1 (Homo sapiens, UniProt P04049); assay: radiometric kinase assay, other kinases: RAF1; assay type: biochemical; settings: duplicate
Chain of RAF1 (P04049 whole entry): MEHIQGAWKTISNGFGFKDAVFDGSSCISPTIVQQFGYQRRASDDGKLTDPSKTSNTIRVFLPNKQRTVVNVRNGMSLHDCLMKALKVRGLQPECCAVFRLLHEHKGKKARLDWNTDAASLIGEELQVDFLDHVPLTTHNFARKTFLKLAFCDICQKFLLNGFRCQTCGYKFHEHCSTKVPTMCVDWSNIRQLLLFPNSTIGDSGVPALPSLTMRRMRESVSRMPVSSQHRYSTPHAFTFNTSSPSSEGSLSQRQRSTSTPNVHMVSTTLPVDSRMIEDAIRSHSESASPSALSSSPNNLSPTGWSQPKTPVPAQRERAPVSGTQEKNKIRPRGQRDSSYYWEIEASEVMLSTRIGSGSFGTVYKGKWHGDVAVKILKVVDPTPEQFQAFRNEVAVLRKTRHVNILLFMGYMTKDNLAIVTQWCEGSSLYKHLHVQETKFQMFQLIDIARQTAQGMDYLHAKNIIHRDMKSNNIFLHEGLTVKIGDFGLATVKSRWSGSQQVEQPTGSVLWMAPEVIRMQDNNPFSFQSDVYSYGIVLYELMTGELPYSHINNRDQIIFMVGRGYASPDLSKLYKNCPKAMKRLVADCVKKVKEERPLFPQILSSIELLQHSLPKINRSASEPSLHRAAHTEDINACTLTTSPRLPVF
Procedure: as §2

[7] = biological target: FYN (Homo sapiens, UniProt P06241); assay: radiometric kinase assay, other kinases: FYN; assay type: biochemical; settings: duplicate
Chain of FYN (P06241 whole entry): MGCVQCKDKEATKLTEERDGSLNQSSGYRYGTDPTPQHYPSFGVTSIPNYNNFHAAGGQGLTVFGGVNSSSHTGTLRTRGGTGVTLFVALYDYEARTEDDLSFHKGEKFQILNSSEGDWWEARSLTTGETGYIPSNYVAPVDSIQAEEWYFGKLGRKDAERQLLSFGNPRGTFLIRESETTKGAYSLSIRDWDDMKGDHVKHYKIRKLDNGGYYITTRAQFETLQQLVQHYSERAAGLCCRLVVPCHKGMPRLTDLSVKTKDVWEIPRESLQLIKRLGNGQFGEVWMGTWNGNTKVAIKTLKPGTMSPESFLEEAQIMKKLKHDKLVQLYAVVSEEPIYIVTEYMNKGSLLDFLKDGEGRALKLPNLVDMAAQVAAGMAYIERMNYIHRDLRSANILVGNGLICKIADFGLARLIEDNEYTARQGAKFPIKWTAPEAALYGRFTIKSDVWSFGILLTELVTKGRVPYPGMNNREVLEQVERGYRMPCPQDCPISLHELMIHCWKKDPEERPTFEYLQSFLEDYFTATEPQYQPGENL
Procedure: as §2

[8] = biological target: JNK3 (Homo sapiens, UniProt P53779); assay: radiometric kinase assay, other kinases: JNK3; assay type: biochemical; settings: duplicate
Procedure: as §2

[9] = biological target: PKCgamma (Homo sapiens, UniProt P05129); assay: radiometric kinase assay, other kinases: PKCgamma; assay type: biochemical; settings: duplicate
Procedure: as §2

[10] = biological target: PKCdelta (Homo sapiens, UniProt Q05655); assay: radiometric kinase assay, other kinases: PKCdelta; assay type: biochemical; settings: duplicate
Procedure: as §2

[11] = biological target: PKCmu/PKD1 (Homo sapiens, UniProt Q15139); assay: radiometric kinase assay, other kinases: PKCmu/PKD1; assay type: biochemical; settings: duplicate
Procedure: as §2

[12] = test system: HepG2 human liver cancer cells; assay: Cell Viability and Proliferation Assay, HepG2; assay type: cell-based; settings: after 24 incubation
Procedure: as §1

[13] = biological target: c-Src (Homo sapiens, UniProt P12931); assay: radiometric kinase assay, other kinases: c-Src; assay type: biochemical; settings: duplicate
Procedure: as §2

[14] = biological target: P38a/MAPK14 (Homo sapiens, UniProt Q16539); assay: radiometric kinase assay, other kinases: P38a/MAPK14; assay type: biochemical; settings: duplicate
Procedure: as §2

[15] = biological target: T4, TIE2/TEK (Homo sapiens, UniProt Q02763); assay: radiometric kinase assay, other kinases: TIE2/TEK; assay type: biochemical; settings: duplicate
T4 construct: other kinases of recombinant human cytoplasmic domain
T4 sequence (Q02763 770-1124 limits assumed): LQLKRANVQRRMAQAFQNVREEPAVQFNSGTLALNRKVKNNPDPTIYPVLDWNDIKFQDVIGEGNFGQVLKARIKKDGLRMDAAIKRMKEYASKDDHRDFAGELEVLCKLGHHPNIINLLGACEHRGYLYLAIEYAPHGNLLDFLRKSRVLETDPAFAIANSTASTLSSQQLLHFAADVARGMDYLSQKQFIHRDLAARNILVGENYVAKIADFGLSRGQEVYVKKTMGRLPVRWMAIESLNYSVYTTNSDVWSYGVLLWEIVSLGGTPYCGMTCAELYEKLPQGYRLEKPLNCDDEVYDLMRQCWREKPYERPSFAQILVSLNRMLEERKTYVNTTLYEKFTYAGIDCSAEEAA
Procedure: as §2

[16] = biological target: BTK (Homo sapiens, UniProt Q06187); assay: radiometric kinase assay, other kinases: BTK; assay type: biochemical; settings: duplicate
Procedure: as §2

[17] = test system: PANC-1 subcutaneous human pancreatic cancer xenografts; assay: PANC-1 Subcutaneous Human Pancreatic Cancer Xenograft Mouse Model
Procedure: Temperature: 22±3° C. Humidity: 50±20%. Light cycle: 12 hours light and 12 hours dark. Cages: Polycarbonate cages of 300 mm×180 mm×150 mm embedded with the soft wood material were used. The bedding was changed twice a week. Diet: Animals had free access to a certified commercial laboratory diet. Concentrations of contaminants in the diet are routinely analyzed by the manufacturers to ensure the contaminants are below their allowable maximum and thus would not affect the tumor growth.
Water: Animals had free access to sterile drinking water. Cage identification: The identification labels for each cage contained the following information: number of animals, sex, strain, date received, treatment, group number and the starting date of the treatment. Briefly, PANC-1 cell line was originally purchased from the ATCC (CRL-1469) and the PANC-1 primary cell line was derived from the PANC-1 subcutaneously xenograft tumors. The PANC-1 primary cells were maintained in vitro as monolayer culture in DMEM medium supplemented with 10% heat inactivated fetal bovine serum, 100 U/ml penicillin and 100 μg/ml streptomycin and L-glutamine (2 mM) at 37° C. in an atmosphere of 5% CO2 air. The cells growing in exponential phase were harvested and counted for tumor inoculation.
Tumor Cell Inoculation and Randomization. Each animal was inoculated subcutaneously on the right flank with the PANC-1 primary tumor cells (5×10^6/animal) in 0.1 mL of PBS. Tumor development was allowed undisrupted until mean tumor volume reached approximately 85 mm^3. Animals were then randomized into 6 groups, with each group consisting of 8 animals. The test articles were administered to the tumor-bearing animals according to predetermined regimens. […] At the time of routine monitoring, the animals were checked for any effects of tumor growth on normal behavior such as mobility, food and water consumption (by looking only), body weight (BW) gain/loss (BW was measured twice weekly), eye/hair matting and any other abnormal effect. Death and observed clinical signs were recorded on the basis of the numbers of animals within each subset.
Tumor Measurement and the Endpoints: The major endpoint was to evaluate if the tumor growth could be inhibited. Tumor measurement was conducted twice weekly with a caliper and the tumor volume (mm3) is estimated using the formula: TV=a×b^2/2, where a and b are long and short diameters of a tumor, respectively. The tumor sizes were then used for T/C value and TGI (tumor growth inhibition), which are indicators of anti-tumor effectiveness. The T/C value (in percent) is an indication of antitumor effect. T and C are the mean volumes of the treated and control groups, respectively, on a given day. BW change, expressed as %, is calculated using the following formula: BW change (%)=(BW_DayX/BW_Day0)×100, where BW_DayX is BW on a given day, and BW_Day0 was BW on Day 0 (tumor inoculation).
Tumor Sample Collection: Two tumor samples from Group 1, 2 and 3, respectively; six tumor samples from Group 4; five tumor samples from Group 5 and 6, respectively, were snap frozen in liquid nitrogen and kept at −80° C. Total 22 tumor samples were collected.
Statistical Analyses: A one-way ANOVA was performed to compare tumor volumes among groups. All data were analyzed using the SPSS 17.0 software; p<0.05 was considered statistically significant.

[18] = biological target: TrkC (Homo sapiens, UniProt Q16288); assay: radiometric kinase assay, other kinases: TrkC; assay type: biochemical; design: other kinases of recombinant human cytoplasmic domain; settings: duplicate
Chain of TrkC (Q16288 454-839 limits assumed): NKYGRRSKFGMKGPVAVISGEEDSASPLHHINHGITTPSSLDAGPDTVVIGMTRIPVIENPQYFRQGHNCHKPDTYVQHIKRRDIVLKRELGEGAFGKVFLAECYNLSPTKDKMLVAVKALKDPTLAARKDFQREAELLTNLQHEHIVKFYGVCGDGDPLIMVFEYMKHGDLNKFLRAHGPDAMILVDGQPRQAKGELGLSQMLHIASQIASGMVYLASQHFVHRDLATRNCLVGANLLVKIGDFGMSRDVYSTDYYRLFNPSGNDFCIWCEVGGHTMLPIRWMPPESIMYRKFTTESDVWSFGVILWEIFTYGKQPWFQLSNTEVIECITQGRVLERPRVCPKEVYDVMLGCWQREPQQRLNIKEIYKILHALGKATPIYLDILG
Procedure: as §2

[19] = biological target: T5, IGF-1R (Homo sapiens, UniProt P08069); assay: radiometric kinase assay, other kinases: IGF-1R; assay type: biochemical; settings: duplicate
T5 construct: other kinases of recombinant human cytoplasmic domain
T5 sequence (P08069 960-1367 limits assumed): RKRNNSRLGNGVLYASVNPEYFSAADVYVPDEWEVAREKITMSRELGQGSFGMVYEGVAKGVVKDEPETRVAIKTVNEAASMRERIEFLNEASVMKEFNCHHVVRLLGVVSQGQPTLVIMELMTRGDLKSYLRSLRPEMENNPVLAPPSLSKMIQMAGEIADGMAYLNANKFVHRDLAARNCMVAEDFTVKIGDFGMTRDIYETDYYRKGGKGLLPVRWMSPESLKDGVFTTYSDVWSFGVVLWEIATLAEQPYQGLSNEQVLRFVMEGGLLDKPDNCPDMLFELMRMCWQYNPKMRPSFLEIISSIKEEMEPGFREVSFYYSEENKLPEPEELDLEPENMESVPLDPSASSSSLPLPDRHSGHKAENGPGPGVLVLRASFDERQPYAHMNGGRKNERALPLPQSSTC
Procedure: as §2

[20] = biological target: CDK2/cyclinA (Homo sapiens, UniProt P24941); assay: radiometric kinase assay, other kinases: CDK2/cyclinA; assay type: biochemical; settings: duplicate
Procedure: as §2

[21] = biological target: ABL1 (Homo sapiens, UniProt P00519); assay: radiometric kinase assay, other kinases: ABL1; assay type: biochemical; settings: duplicate
Procedure: as §2

[22] = test system: CCI rats, mechanical allodynia; settings: CCI rats, 150 mg/kg oral dose
Procedure: Chronic Constriction Injury (CCI) Model of Neuropathic Pain in Rats. […] Chronic constriction injury of the sciatic nerve was produced by tying four loose ligatures around the left sciatic nerve according to the method of Bennett and Xie. […] Calibrated von Frey filaments were used to determine the lowest mechanical (tactile) threshold required to evoke a brisk paw withdrawal reflex in the rat hindpaws. Rats were allowed to acclimatize in wire mesh cages for 15-20 min prior to von Frey testing. Assessment of paw withdrawal thresholds (PWTs) using von Frey filaments was undertaken prior to CCI-surgery (pre-surgery baseline on day 0). Before the drug dosing on day 14, the pre-dose baseline was recorded for each rat. […] Drug-naïve CCI-rats (n=4-6 per group) were used. The oral vehicle was 0.5% CMC-Na/0.1% Tween 80 in distilled water. The positive control gabapentin was dissolved in the vehicle and orally given at 100 mg/kg (by oral gavage). Test compound was suspended in the vehicle and orally given at 50 mg/kg and 100 mg/kg.

[23] = biological target: FGR (Homo sapiens, UniProt P09769); assay: radiometric kinase assay, other kinases: FGR; assay type: biochemical; settings: duplicate
Chain of FGR (P09769 whole entry): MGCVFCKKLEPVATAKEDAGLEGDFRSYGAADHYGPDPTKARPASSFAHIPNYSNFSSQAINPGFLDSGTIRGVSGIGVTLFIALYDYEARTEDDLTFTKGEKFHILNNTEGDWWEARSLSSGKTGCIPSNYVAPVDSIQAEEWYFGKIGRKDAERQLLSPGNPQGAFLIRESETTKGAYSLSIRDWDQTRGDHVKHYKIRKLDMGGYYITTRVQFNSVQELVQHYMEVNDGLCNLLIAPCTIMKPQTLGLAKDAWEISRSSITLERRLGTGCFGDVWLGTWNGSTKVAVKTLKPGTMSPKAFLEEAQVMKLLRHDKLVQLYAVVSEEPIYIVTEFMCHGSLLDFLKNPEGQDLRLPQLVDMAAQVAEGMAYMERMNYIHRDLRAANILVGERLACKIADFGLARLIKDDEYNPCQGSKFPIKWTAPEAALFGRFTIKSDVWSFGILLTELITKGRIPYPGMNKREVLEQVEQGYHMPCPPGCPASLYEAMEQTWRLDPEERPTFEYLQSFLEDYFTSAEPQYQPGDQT
Procedure: as §2

Nc1c(N2CCN(C3CCCCC3)CC2)cc(Nc2ccc(C(=O)O)cc2)c2c1C(=O)c1ccccc1C2=O [Compound 12, 4-{[4-amino-3-(4-cyclohexylpiperazin-1-yl)-9,10-dioxo-9,10-dihydroanthracen-1-yl]amino}benzoic acid]
IC50 [1]: 2 to 5 µM | IC50 [2]: > 10 µM | IC50 [3]: > 10 µM | IC50 [4]: > 10 µM | IC50 [5]: > 10 µM | IC50 [6]: > 10 µM | IC50 [7]: > 10 µM | IC50 [8]: > 10 µM | IC50 [9]: > 10 µM | IC50 [10]: > 10 µM | IC50 [11]: > 10 µM | IC50 [12]: ~5 µM | IC50 [13]: > 10 µM | IC50 [14]: > 10 µM | IC50 [15]: > 10 µM | IC50 [16]: > 10 µM | TGI (%, D18) ([17]; D18, Compound-12 alone, dose not given): 34% | Tumor volume (Mean ± SEM) ([17]; Day 7, Compound-12 alone, dose not given): 84 ± 4 mm^3 | Tumor volume (Mean ± SEM) ([17]; Day 11, Compound-12 alone, dose not given): 111 ± 5 mm^3 | Tumor volume (Mean ± SEM) ([17]; Day 14, Compound-12 alone, dose not given): 157 ± 15 mm^3 | Tumor volume (Mean ± SEM) ([17]; Day 18, Compound-12 alone, dose not given): 234 ± 8 mm^3 | Tumor volume (Mean ± SEM) ([17]; Day 19, Compound-12 alone, dose not given): 276 ± 27 mm^3 | anti-tumor efficacy in words ([17]; alone or in combination with gemcitabine): efficacious in reducing tumor growth | IC50 [18]: > 10 µM | IC50 [19]: > 10 µM | IC50 [20]: > 10 µM | IC50 [21]: > 10 µM | relative analgesic effect compared to morphine (HCl) at 3 mg/kg, s.c. [22]: about 48% | IC50 [23]: > 10 µM
